Laboratory results taken from PMC5934630 (2018).

Experiments:
[1] = test system: MA (DNA, aptamer) CTTACGACTCAGGCATTTTGCCGGGTAACGAAGTTACTGTCGTAAG; experiment: ITC; details: Na+ 20 mM, Mg2+ 0.5 mM
[2] = test system: MA-L (DNA, aptamer) CAGAACTTACGACTCAGGCATTTTGCCGGGTAACGAAGTTACTGTCGTAAG; experiment: ITC; details: Na+ 20 mM, Mg2+ 0.5 mM

KD [1]: 6.1 ± 0.2 µM | KD [2]: 6.2 µM
SMILES: CCCC(C(=O)c1ccc2c(c1)OCO2)N1CCCC1 (centres unmarked)
